ChEMBL document CHEMBL3525983, “Pharmacokinetics, metabolism, and disposition of rivoglitazone, a novel peroxisome proliferator-activated receptor γ agonist, in rats and monkeys” (Drug Metab Dispos, 2011)

How the values were obtained:
Rattus norvegicus = assay: Drug uptake in F344/DuCrlCrlj rat plasma assessed as unchanged compound at 1 to 5 mg/kg, po administered as single dose via gavage by LC-MS/MS analysis; assay type: ADME, organism-based; parameters: dose 1-5 mg/kg, dosed compound name [14C]Rivoglitazone, route oral; settings: in vivo
[1] = Drug excretion in monkey feces assessed as unchanged compound at 1 mg/kg, po administered via gavage measured during 0 to 72 hrs by radio-HPLC analysis; assay type: ADME, organism-based, Macaca mulatta; parameters: dose 1 mg/kg, dosed compound name [14C]Rivoglitazone, route oral; settings: rhesus monkey, read-out: Compound recovery
[2] = AUC (0 to t) in monkey at 0.493 mg/kg, po administered via gavage by LC-MS/MS analysis; assay type: ADME, organism-based, Macaca mulatta; parameters: dose 0.493 mg/kg, dosed compound name [14C]Rivoglitazone, route oral; settings: rhesus monkey, plasma
[3] = AUC (0 to infinity) in monkey at 0.493 mg/kg, po administered via gavage by LC-MS/MS analysis; assay type: ADME, organism-based, Macaca mulatta; parameters: time infinity, dose 0.493 mg/kg, dosed compound name [14C]Rivoglitazone, route oral; settings: rhesus monkey, plasma
[4] = Terminal elimination half life in monkey at 0.493 mg/kg, po administered via gavage by LC-MS/MS analysis; assay type: ADME, organism-based, Macaca mulatta; parameters: dose 0.493 mg/kg, dosed compound name [14C]Rivoglitazone, route oral; settings: rhesus monkey, in vivo, read-out: beta t1/2 (converted)
[5] = Apparent total clearance in monkey at 0.493 mg/kg, po administered via gavage by LC-MS/MS analysis; assay type: ADME, organism-based, Macaca mulatta; parameters: dose 0.493 mg/kg, dosed compound name [14C]Rivoglitazone, route oral; settings: rhesus monkey, in vivo, read-out: CLt/F
[6] = AUC (0 to infinity) in monkey at 0.986 mg/kg, po administered via gavage by LC-MS/MS analysis; assay type: ADME, organism-based, Macaca mulatta; parameters: time infinity, dose 0.986 mg/kg, dosed compound name [14C]Rivoglitazone, route oral; settings: rhesus monkey, plasma
[7] = Tmax in monkey at 0.986 mg/kg, po administered via gavage by LC-MS/MS analysis; assay type: ADME, organism-based, Macaca mulatta; parameters: dose 0.986 mg/kg, dosed compound name [14C]Rivoglitazone, route oral; settings: rhesus monkey, in vivo
[8] = Terminal elimination half life in monkey at 0.986 mg/kg, po administered via gavage by LC-MS/MS analysis; assay type: ADME, organism-based, Macaca mulatta; parameters: dose 0.986 mg/kg, dosed compound name [14C]Rivoglitazone, route oral; settings: rhesus monkey, in vivo, read-out: beta t1/2 (converted)
[9] = Apparent total clearance in monkey at 0.986 mg/kg, po administered via gavage by LC-MS/MS analysis; assay type: ADME, organism-based, Macaca mulatta; parameters: dose 0.986 mg/kg, dosed compound name [14C]Rivoglitazone, route oral; settings: rhesus monkey, in vivo, read-out: CLt/F
[10] = Oral bioavailability in monkey at 0.986 mg/kg administered via gavage by LC-MS/MS analysis; assay type: ADME, organism-based, Macaca mulatta; parameters: dosed compound name [14C]Rivoglitazone; settings: rhesus monkey, in vivo
[11] = Volume of distribution at steady state in monkey at 0.986 mg/kg, iv administered via tail vein by LC-MS/MS analysis; assay type: ADME, organism-based, Macaca mulatta; parameters: dose 0.986 mg/kg, dosed compound name [14C]Rivoglitazone, route intravenous; settings: rhesus monkey, in vivo, read-out: Vdss
[12] = AUC (0 to t) in F344/DuCrlCrlj rat at 0.1 mg/kg, po administered via gavage by LC-MS/MS analysis; assay type: ADME, organism-based; parameters: dose 0.1 mg/kg, dosed compound name [14C]Rivoglitazone, route oral; settings: plasma
[13] = Terminal elimination half life in F344/DuCrlCrlj rat at 0.1 mg/kg, po administered via gavage by LC-MS/MS analysis; assay type: ADME, organism-based; parameters: dose 0.1 mg/kg, dosed compound name [14C]Rivoglitazone, route oral; settings: in vivo, read-out: beta t1/2 (converted)
[14] = Oral bioavailability in F344/DuCrlCrlj rat at 0.1 mg/kg administered via gavage by LC-MS/MS analysis; assay type: ADME, organism-based; parameters: dosed compound name [14C]Rivoglitazone; settings: in vivo
[15] = AUC (0 to t) in F344/DuCrlCrlj rat at 0.5 mg/kg, po administered via gavage by LC-MS/MS analysis; assay type: ADME, organism-based; parameters: dose 0.5 mg/kg, dosed compound name [14C]Rivoglitazone, route oral; settings: plasma
[16] = Cmax in F344/DuCrlCrlj rat at 0.5 mg/kg, po administered via gavage by LC-MS/MS analysis; assay type: ADME, organism-based; parameters: dose 0.5 mg/kg, dosed compound name [14C]Rivoglitazone, route oral; settings: in vivo
[17] = Oral bioavailability in F344/DuCrlCrlj rat at 0.5 mg/kg administered via gavage by LC-MS/MS analysis; assay type: ADME, organism-based; parameters: dosed compound name [14C]Rivoglitazone; settings: in vivo
[18] = AUC (0 to t) in F344/DuCrlCrlj rat at 1 mg/kg, po administered via gavage by LC-MS/MS analysis; assay type: ADME, organism-based; parameters: dose 1 mg/kg, dosed compound name [14C]Rivoglitazone, route oral; settings: plasma
[19] = AUC (0 to infinity) in F344/DuCrlCrlj rat at 1 mg/kg, po administered via gavage by LC-MS/MS analysis; assay type: ADME, organism-based; parameters: time infinity, dose 1 mg/kg, dosed compound name [14C]Rivoglitazone, route oral; settings: plasma
[20] = Terminal elimination half life in F344/DuCrlCrlj rat at 1 mg/kg, po administered via gavage by LC-MS/MS analysis; assay type: ADME, organism-based; parameters: dose 1 mg/kg, dosed compound name [14C]Rivoglitazone, route oral; settings: in vivo, read-out: beta t1/2 (converted)
[21] = AUC (0 to t) in monkey at 0.0986 mg/kg, po administered via gavage by LC-MS/MS analysis; assay type: ADME, organism-based, Macaca mulatta; parameters: dose 0.0986 mg/kg, dosed compound name [14C]Rivoglitazone, route oral; settings: rhesus monkey, plasma
[22] = Cmax in monkey at 0.0986 mg/kg, po administered via gavage by LC-MS/MS analysis; assay type: ADME, organism-based, Macaca mulatta; parameters: dose 0.0986 mg/kg, dosed compound name [14C]Rivoglitazone, route oral; settings: rhesus monkey, in vivo
[23] = Terminal elimination half life in monkey at 0.0986 mg/kg, po administered via gavage by LC-MS/MS analysis; assay type: ADME, organism-based, Macaca mulatta; parameters: dose 0.0986 mg/kg, dosed compound name [14C]Rivoglitazone, route oral; settings: rhesus monkey, in vivo, read-out: beta t1/2 (converted)
[24] = Apparent total clearance in monkey at 0.0986 mg/kg, po administered via gavage by LC-MS/MS analysis; assay type: ADME, organism-based, Macaca mulatta; parameters: dose 0.0986 mg/kg, dosed compound name [14C]Rivoglitazone, route oral; settings: rhesus monkey, in vivo, read-out: CLt/F
[25] = AUC (0 to t) in monkey at 0.493 mg/kg, iv administered via tail vein by LC-MS/MS analysis; assay type: ADME, organism-based, Macaca mulatta; parameters: dose 0.493 mg/kg, dosed compound name [14C]Rivoglitazone, route intravenous; settings: rhesus monkey, plasma
[26] = AUC (0 to infinity) in monkey at 0.493 mg/kg, iv administered via tail vein by LC-MS/MS analysis; assay type: ADME, organism-based, Macaca mulatta; parameters: time infinity, dose 0.493 mg/kg, dosed compound name [14C]Rivoglitazone, route intravenous; settings: rhesus monkey, plasma
[27] = AUC (0 to t) in monkey at 0.986 mg/kg, iv administered via tail vein by LC-MS/MS analysis; assay type: ADME, organism-based, Macaca mulatta; parameters: dose 0.986 mg/kg, dosed compound name [14C]Rivoglitazone, route intravenous; settings: rhesus monkey, plasma
[28] = Total clearance in monkey at 0.986 mg/kg, iv administered via tail vein by LC-MS/MS analysis; assay type: ADME, organism-based, Macaca mulatta; parameters: dose 0.986 mg/kg, dosed compound name [14C]Rivoglitazone, route intravenous; settings: rhesus monkey, in vivo
[29] = AUC (0 to t) in F344/DuCrlCrlj rat at 0.5 mg/kg, iv administered via tail vein by LC-MS/MS analysis; assay type: ADME, organism-based; parameters: dose 0.5 mg/kg, dosed compound name [14C]Rivoglitazone, route intravenous; settings: plasma
[30] = AUC (0 to infinity) in F344/DuCrlCrlj rat at 0.5 mg/kg, iv administered via tail vein by LC-MS/MS analysis; assay type: ADME, organism-based; parameters: time infinity, dose 0.5 mg/kg, dosed compound name [14C]Rivoglitazone, route intravenous; settings: plasma
[31] = Volume of distribution at steady state in F344/DuCrlCrlj rat at 0.5 mg/kg, iv administered via tail vein by LC-MS/MS analysis; assay type: ADME, organism-based; parameters: dose 0.5 mg/kg, dosed compound name [14C]Rivoglitazone, route intravenous; settings: in vivo, read-out: Vdss
[32] = AUC (0 to t) in monkey at 0.0986 mg/kg, iv administered via tail vein by LC-MS/MS analysis; assay type: ADME, organism-based, Macaca mulatta; parameters: dose 0.0986 mg/kg, dosed compound name [14C]Rivoglitazone, route intravenous; settings: rhesus monkey, plasma
[33] = AUC (0 to infinity) in monkey at 0.0986 mg/kg, iv administered via tail vein by LC-MS/MS analysis; assay type: ADME, organism-based, Macaca mulatta; parameters: time infinity, dose 0.0986 mg/kg, dosed compound name [14C]Rivoglitazone, route intravenous; settings: rhesus monkey, plasma
[34] = Volume of distribution at steady state in monkey at 0.0986 mg/kg, iv administered via tail vein by LC-MS/MS analysis; assay type: ADME, organism-based, Macaca mulatta; parameters: dose 0.0986 mg/kg, dosed compound name [14C]Rivoglitazone, route intravenous; settings: rhesus monkey, in vivo, read-out: Vdss

- Compound recovery (Rattus norvegicus): metabolite_detected
- dose excreted [1]: 23.5%
- AUC(0-t) [2]: 17200 ng·h/mL
- AUC(0-inf) [3]: 17700 ng·h/mL
- half-life [4]: 7.56 h
- CL/F [5]: 0.485 mL/min/kg
- AUC(0-inf) [6]: 43100 ng·h/mL
- Tmax [7]: 3.5 h
- half-life [8]: 7.34 h
- CL/F [9]: 0.41 mL/min/kg
- bioavailability [10]: 76.1%
- Vd [11]: 0.138 L/kg
- AUC(0-t) [12]: 4340 ng·h/mL
- half-life [13]: 4.35 h
- bioavailability [14]: 98.1%
- AUC(0-t) [15]: 21000 ng·h/mL
- Cmax [16]: 2090 ng/mL
- bioavailability [17]: 95%
- AUC(0-t) [18]: 48500 ng·h/mL
- AUC(0-inf) [19]: 49800 ng·h/mL
- half-life [20]: 4.5 h
- AUC(0-t) [21]: 3440 ng·h/mL
- Cmax [22]: 242 ng/mL
- half-life [23]: 8.33 h
- CL/F [24]: 0.432 mL/min/kg
- AUC(0-t) [25]: 21700 ng·h/mL
- AUC(0-inf) [26]: 23500 ng·h/mL
- AUC(0-t) [27]: 51700 ng·h/mL
- clearance [28]: 0.31 mL/min/kg
- AUC(0-t) [29]: 22300 ng·h/mL
- AUC(0-inf) [30]: 22900 ng·h/mL
- Vd [31]: 0.131 L/kg
- AUC(0-t) [32]: 3800 ng·h/mL
- AUC(0-inf) [33]: 5000 ng·h/mL
- Vd [34]: 0.166 L/kg
SMILES: COc1ccc2nc(COc3ccc(CC4SC(=O)NC4=O)cc3)n(C)c2c1.Cl (racemic)
